According to patent US9340590B2 (priority 2011, dated 2016):
Where two headings read alike, the source gives them in different places. Positions of bridges follow the written chain, without caps; N, C: chain ends. Residues, ends and D or L forms follow the SMILES beside them.

Assays:
Test in all cases: cell-based
[1] = target: hNav1.7 (Homo sapiens, UniProt Q15858); assay type: cell-based; conditions: IonWorks Quattro, read-out: IWQ Use Nav1.7
[2] = target: hNav1.5 (Homo sapiens, UniProt Q14524); conditions: IonWorks Quattro, read-out: IWQ Use Nav1.5
[3] = target: hNav1.3 (Homo sapiens, UniProt Q9NY46); conditions: IonWorks Quattro, read-out: IWQ Use Nav1.3
[4] = use-dependent protocol, hNav1.7
[5] = use-dependent protocol, hNav1.5
[6] = use-dependent protocol, hNav1.3

Chain of hNav1.7 (Q15858 whole entry, looked up): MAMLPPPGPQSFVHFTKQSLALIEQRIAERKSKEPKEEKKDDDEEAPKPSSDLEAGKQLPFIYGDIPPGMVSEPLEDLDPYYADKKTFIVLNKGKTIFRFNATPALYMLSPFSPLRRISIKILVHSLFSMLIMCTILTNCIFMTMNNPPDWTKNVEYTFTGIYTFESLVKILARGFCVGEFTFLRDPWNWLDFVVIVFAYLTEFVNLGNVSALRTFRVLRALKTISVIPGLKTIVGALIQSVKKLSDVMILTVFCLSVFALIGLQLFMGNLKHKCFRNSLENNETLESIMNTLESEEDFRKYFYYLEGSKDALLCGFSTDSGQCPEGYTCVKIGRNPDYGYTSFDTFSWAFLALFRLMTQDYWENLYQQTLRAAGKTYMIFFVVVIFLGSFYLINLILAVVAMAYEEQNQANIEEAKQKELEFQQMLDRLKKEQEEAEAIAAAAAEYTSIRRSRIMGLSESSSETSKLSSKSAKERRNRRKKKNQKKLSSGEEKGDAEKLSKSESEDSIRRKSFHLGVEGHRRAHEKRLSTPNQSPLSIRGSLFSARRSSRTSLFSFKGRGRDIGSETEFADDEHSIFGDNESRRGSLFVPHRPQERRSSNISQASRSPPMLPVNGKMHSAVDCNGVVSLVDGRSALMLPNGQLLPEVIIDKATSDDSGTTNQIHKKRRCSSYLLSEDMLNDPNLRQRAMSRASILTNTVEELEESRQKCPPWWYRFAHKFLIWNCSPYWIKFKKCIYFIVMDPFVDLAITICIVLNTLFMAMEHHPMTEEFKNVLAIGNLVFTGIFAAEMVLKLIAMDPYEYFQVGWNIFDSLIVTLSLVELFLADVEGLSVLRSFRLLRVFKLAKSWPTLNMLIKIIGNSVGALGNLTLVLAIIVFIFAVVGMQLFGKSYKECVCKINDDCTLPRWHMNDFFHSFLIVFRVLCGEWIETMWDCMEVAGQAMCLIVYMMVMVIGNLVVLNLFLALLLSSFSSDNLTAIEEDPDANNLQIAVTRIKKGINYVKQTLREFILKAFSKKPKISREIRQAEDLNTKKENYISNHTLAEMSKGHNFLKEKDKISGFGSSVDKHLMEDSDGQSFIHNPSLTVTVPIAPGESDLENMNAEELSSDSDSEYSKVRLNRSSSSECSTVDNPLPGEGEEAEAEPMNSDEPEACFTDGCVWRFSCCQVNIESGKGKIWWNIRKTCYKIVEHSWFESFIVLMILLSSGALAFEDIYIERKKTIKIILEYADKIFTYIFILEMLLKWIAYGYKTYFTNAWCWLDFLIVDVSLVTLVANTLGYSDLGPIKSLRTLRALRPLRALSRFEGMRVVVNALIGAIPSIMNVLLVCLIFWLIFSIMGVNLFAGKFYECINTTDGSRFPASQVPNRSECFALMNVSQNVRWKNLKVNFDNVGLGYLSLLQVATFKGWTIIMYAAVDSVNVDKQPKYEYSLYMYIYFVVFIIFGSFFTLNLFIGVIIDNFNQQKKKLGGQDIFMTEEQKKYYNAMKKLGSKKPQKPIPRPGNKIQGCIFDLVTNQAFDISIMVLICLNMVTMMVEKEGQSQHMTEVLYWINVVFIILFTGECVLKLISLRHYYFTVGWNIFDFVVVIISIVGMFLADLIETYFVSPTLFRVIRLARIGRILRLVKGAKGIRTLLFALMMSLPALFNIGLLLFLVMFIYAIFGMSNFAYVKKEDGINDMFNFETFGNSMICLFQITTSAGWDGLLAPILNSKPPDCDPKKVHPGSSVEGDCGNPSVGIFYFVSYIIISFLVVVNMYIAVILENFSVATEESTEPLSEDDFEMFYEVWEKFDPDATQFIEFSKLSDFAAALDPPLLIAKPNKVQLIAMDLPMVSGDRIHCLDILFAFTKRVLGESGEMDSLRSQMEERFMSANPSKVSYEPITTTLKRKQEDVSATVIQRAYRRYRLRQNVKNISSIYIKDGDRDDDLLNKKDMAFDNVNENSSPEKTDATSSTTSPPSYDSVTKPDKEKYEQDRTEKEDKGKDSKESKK
Chain of hNav1.5 (Q14524 whole entry, looked up): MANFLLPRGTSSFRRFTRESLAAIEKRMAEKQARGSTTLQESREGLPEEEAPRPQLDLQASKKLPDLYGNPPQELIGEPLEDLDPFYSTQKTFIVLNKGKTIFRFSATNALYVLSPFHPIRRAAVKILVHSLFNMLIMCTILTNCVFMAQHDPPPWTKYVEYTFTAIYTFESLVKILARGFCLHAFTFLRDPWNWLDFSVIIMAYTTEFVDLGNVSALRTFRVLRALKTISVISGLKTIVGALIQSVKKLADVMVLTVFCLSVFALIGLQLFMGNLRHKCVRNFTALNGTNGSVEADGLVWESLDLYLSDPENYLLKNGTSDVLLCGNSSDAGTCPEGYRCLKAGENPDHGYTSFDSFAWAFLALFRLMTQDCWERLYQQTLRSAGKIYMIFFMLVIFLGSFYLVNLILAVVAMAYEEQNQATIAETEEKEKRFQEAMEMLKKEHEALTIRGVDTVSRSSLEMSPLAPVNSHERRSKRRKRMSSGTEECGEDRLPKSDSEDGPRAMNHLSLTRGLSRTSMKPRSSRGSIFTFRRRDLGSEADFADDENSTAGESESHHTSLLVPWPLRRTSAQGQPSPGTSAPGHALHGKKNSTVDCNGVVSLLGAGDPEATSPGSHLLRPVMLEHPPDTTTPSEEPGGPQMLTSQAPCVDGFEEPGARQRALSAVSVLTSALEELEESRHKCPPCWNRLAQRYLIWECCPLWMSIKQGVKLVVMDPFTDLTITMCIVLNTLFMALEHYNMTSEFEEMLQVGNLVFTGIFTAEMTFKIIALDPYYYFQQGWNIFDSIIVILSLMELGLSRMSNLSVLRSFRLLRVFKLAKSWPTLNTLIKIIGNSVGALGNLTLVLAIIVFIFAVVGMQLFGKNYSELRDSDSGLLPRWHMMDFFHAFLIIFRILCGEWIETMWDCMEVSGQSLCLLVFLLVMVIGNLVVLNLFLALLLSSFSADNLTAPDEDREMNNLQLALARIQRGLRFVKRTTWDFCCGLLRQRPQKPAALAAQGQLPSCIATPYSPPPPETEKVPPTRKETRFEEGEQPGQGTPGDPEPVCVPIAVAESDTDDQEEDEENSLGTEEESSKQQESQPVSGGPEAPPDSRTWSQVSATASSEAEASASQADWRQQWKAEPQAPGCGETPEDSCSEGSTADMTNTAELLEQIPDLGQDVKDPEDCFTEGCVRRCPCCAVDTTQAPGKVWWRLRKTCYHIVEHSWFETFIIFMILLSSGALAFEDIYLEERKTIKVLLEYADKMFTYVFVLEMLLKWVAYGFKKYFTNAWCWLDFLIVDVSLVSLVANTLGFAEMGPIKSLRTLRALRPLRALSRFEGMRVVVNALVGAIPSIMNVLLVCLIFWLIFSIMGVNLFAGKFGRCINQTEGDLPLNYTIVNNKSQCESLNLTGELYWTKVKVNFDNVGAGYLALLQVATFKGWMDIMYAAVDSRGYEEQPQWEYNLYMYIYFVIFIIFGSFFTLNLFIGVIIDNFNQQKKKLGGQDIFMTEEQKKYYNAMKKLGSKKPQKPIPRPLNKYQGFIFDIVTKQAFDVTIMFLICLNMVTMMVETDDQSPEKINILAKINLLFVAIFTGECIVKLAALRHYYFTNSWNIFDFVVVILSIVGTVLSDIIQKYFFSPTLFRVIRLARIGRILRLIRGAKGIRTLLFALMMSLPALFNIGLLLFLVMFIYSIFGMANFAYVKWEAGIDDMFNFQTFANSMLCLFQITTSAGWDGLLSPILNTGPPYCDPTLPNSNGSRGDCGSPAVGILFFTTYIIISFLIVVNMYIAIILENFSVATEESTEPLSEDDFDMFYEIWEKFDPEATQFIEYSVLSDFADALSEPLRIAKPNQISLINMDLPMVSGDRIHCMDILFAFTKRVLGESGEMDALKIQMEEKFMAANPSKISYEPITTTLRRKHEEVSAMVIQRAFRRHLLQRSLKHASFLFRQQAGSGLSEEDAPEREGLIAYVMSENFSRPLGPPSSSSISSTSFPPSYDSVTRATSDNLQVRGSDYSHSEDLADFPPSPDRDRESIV

SMILES: CC[C@H](C)[C@@H]1NC(=O)[C@H](CC(C)C)NC(=O)[C@H](CC(N)=O)NC(=O)[C@@H]2CCCN2C(=O)[C@H](CCCNC(=N)N)NC(=O)[C@@H]2CSSC[C@H](NC(=O)[C@@H](N)CC(=O)O)C(=O)N[C@@H](CC(C)C)C(=O)NCC(=O)N[C@@H](Cc3ccccc3)C(=O)N[C@@H](CCSC)C(=O)N[C@@H](CCCNC(=N)N)C(=O)N[C@@H](CCCCN)C(=O)N[C@H]3CSSC[C@H](NC1=O)C(=O)N[C@@H](CO)C(=O)N[C@@H](CCCNC(=N)N)C(=O)N[C@@H]([C@@H](C)O)C(=O)N[C@@H](Cc1c[nH]cn1)C(=O)N[C@@H](CCCCN)C(=O)N[C@@H](Cc1c[nH]c4ccccc14)C(=O)N[C@H](C(=O)N[C@@H](CCCCN)C(=O)N[C@@H](Cc1ccc(O)cc1)C(=O)N[C@H](C(=O)N[C@@H](Cc1ccccc1)C(N)=O)C(C)C)CSSC[C@H](NC(=O)[C@H](CCCCN)NC(=O)[C@H](CC(=O)O)NC(=O)[C@H](CC(N)=O)NC(=O)[C@H](CC(=O)O)NC(=O)[C@@H]1CCCN1C(=O)[C@H]([C@@H](C)CC)NC3=O)C(=O)N2 [compound 321] (H-DCLGFMRKCIPDNDKCCRPNLICSRTHKWCKYVF-NH2; disulfide 2-17, 9-23, 16-30)
- IC50 ([1]; Use): 0.08 µM
- IC50 ([2]; Use): 11.5 µM
- IC50 ([3]; Use): 0.07 µM

SMILES: CC[C@H](C)[C@@H]1NC(=O)[C@@H]2CSSC[C@@H]3NC(=O)[C@H](C(C)C)NC(=O)[C@H](CC(C)C)NC(=O)[C@H](CCC(=O)O)NC(=O)[C@@H]4CCCN4C(=O)[C@H](CCCNC(=N)N)NC(=O)[C@H](CSSC[C@H](NC(=O)[C@@H](N)CC(=O)O)C(=O)N[C@@H](CC(C)C)C(=O)NCC(=O)N[C@@H](Cc4ccccc4)C(=O)N[C@@H](CCSC)C(=O)N[C@@H](CCCNC(=N)N)C(=O)N[C@@H](CCCCN)C(=O)N2)NC(=O)[C@H](CSSC[C@@H](C(=O)N[C@@H](CCCCN)C(=O)N[C@@H](Cc2ccc(O)cc2)C(=O)N[C@H](C(=O)N[C@@H](Cc2ccccc2)C(N)=O)C(C)C)NC(=O)[C@H](Cc2c[nH]c4ccccc24)NC(=O)[C@H](CCCCN)NC(=O)[C@H](Cc2cnc[nH]2)NC(=O)[C@H]([C@@H](C)O)NC(=O)[C@H](CCCNC(=N)N)NC(=O)[C@H](CO)NC3=O)NC(=O)[C@H](CCCCN)NC(=O)[C@H](CC(=O)O)NC(=O)[C@H](CC(N)=O)NC(=O)[C@H](CC(=O)O)NC(=O)[C@@H]2CCCN2C1=O [compound 149] (H-DCLGFMRKCIPDNDKCCRPELVCSRTHKWCKYVF-NH2; disulfide 2-17, 9-23, 16-30)
- IC50 ([1]; Use): 1.42 µM
- IC50 ([2]; Use): 7.49 µM
- IC50 ([3]; Use): 1.02 µM

SMILES: CC[C@H](C)[C@@H]1NC(=O)[C@@H]2CSSC[C@@H]3NC(=O)[C@H](C(C)C)NC(=O)[C@H](CC(C)C)NC(=O)[C@H](CC(N)=O)NC(=O)[C@@H]4CCCN4C(=O)[C@H](CCCNC(=N)N)NC(=O)[C@H](CSSC[C@H](NC(=O)[C@@H](N)CC(=O)O)C(=O)N[C@@H](CC(C)C)C(=O)NCC(=O)N[C@@H](CCSC)C(=O)N[C@@H](Cc4ccccc4)C(=O)N[C@@H](CCCNC(=N)N)C(=O)N[C@@H](CCCCN)C(=O)N2)NC(=O)[C@H](CSSC[C@@H](C(=O)N[C@@H](CCCCN)C(=O)N[C@@H](Cc2ccc(O)cc2)C(=O)N[C@H](C(=O)N[C@@H](Cc2ccccc2)C(N)=O)C(C)C)NC(=O)[C@H](Cc2c[nH]c4ccccc24)NC(=O)[C@H](CCCCN)NC(=O)[C@H](Cc2c[nH]cn2)NC(=O)[C@H]([C@@H](C)O)NC(=O)[C@H](CCCNC(=N)N)NC(=O)[C@H](CO)NC3=O)NC(=O)[C@H](CCCCN)NC(=O)[C@H](CC(=O)O)NC(=O)[C@H](CC(N)=O)NC(=O)[C@H](CC(=O)O)NC(=O)[C@@H]2CCCN2C1=O [compound 611] (H-DCLGMFRKCIPDNDKCCRPNLVCSRTHKWCKYVF-NH2; disulfide 2-17, 9-23, 16-30)
- IC50 ([1]; use-dependent block, hNav1.7): 0.043 µM
- IC50 ([2]; use-dependent block, hNav1.5): 13.3 µM
- IC50 ([3]; use-dependent block, hNav1.3): 0.11 µM

SMILES: CC[C@H](C)[C@@H]1NC(=O)[C@@H]2CSSC[C@@H]3NC(=O)[C@H](C(C)C)NC(=O)[C@H](CC(C)C)NC(=O)[C@H](CC(N)=O)NC(=O)[C@@H]4CCCN4C(=O)[C@H](CCCNC(=N)N)NC(=O)[C@H](CSSC[C@H](NC(=O)[C@@H](N)CC(=O)O)C(=O)N[C@@H](CC(C)C)C(=O)NCC(=O)N[C@@H](C)C(=O)N[C@@H](Cc4ccccc4)C(=O)N[C@@H](CCCNC(=N)N)C(=O)N[C@@H](CCCCN)C(=O)N2)NC(=O)[C@H](CSSC[C@@H](C(=O)N[C@@H](CCCCN)C(=O)N[C@@H](Cc2ccc(O)cc2)C(=O)N[C@H](C(=O)N[C@@H](Cc2ccccc2)C(N)=O)C(C)C)NC(=O)[C@H](Cc2c[nH]c4ccccc24)NC(=O)[C@H](CCCCN)NC(=O)[C@H](Cc2c[nH]cn2)NC(=O)[C@H]([C@@H](C)O)NC(=O)[C@H](CCCNC(=N)N)NC(=O)[C@H](CO)NC3=O)NC(=O)[C@H](CCCCN)NC(=O)[C@H](CC(=O)O)NC(=O)[C@H](CC(N)=O)NC(=O)[C@H](CCC(=O)O)NC(=O)[C@@H]2CCCN2C1=O [compound 703] (H-DCLGAFRKCIPENDKCCRPNLVCSRTHKWCKYVF-NH2; disulfide 2-17, 9-23, 16-30)
- IC50 [1, 4]: 0.61 µM
- IC50 [2, 5]: 45 µM
- IC50 [3, 6]: 0.2 µM

SMILES: CC[C@H](C)[C@@H]1NC(=O)[C@@H]2CSSC[C@@H]3NC(=O)[C@H](C(C)C)NC(=O)[C@H](CC(C)C)NC(=O)[C@H](CC(N)=O)NC(=O)[C@@H]4CCCN4C(=O)[C@H](CCCNC(=N)N)NC(=O)[C@H](CSSC[C@H](NC(=O)[C@@H](N)CC(=O)O)C(=O)N[C@@H](CC(C)C)C(=O)NCC(=O)N[C@@H](CCC(C)C)C(=O)N[C@@H](CC(C)C)C(=O)N[C@@H](CCCNC(=N)N)C(=O)N[C@@H](CCCCN)C(=O)N2)NC(=O)[C@H](CSSC[C@@H](C(=O)N[C@@H](CCCCN)C(=O)N[C@@H](Cc2ccc(O)cc2)C(=O)N[C@H](C(=O)N[C@@H](Cc2ccccc2)C(N)=O)C(C)C)NC(=O)[C@H](Cc2c[nH]c4ccccc24)NC(=O)[C@H](CCCCN)NC(=O)[C@H](Cc2c[nH]cn2)NC(=O)[C@H]([C@@H](C)O)NC(=O)[C@H](CCCNC(=N)N)NC(=O)[C@H](CO)NC3=O)NC(=O)[C@H](CCCCN)NC(=O)[C@H](CC(=O)O)NC(=O)[C@H](CC(N)=O)NC(=O)[C@H](CC(=O)O)NC(=O)[C@@H]2CCCN2C1=O [compound 660]
- IC50 [1, 4]: 0.031 µM
- IC50 [2, 5]: > 5 µM
- IC50 [3, 6]: 0.059 µM

SMILES: CC[C@H](C)[C@@H]1NC(=O)[C@@H]2CSSC[C@@H]3NC(=O)[C@H](C(C)C)NC(=O)[C@H](CC(C)C)NC(=O)[C@H](CC(N)=O)NC(=O)[C@@H]4CCCN4C(=O)[C@H](CCCNC(=N)N)NC(=O)[C@H](CSSC[C@H](NC(=O)[C@@H](N)CC(=O)O)C(=O)N[C@@H](CC(C)C)C(=O)NCC(=O)N[C@@H](C4CCCC4)C(=O)N[C@@H](CC(C)C)C(=O)N[C@@H](CCCNC(=N)N)C(=O)N[C@@H](CCCCN)C(=O)N2)NC(=O)[C@H](CSSC[C@@H](C(=O)N[C@@H](CCCCN)C(=O)N[C@@H](Cc2ccc(O)cc2)C(=O)N[C@H](C(=O)N[C@@H](Cc2ccccc2)C(N)=O)C(C)C)NC(=O)[C@H](Cc2c[nH]c4ccccc24)NC(=O)[C@H](CCCCN)NC(=O)[C@H](Cc2c[nH]cn2)NC(=O)[C@H]([C@@H](C)O)NC(=O)[C@H](CCCNC(=N)N)NC(=O)[C@H](CO)NC3=O)NC(=O)[C@H](CCCCN)NC(=O)[C@H](CC(=O)O)NC(=O)[C@H](CC(N)=O)NC(=O)[C@H](CC(=O)O)NC(=O)[C@@H]2CCCN2C1=O [compound 663]
- IC50 [1, 4]: 0.059 µM
- IC50 [2, 5]: > 5 µM
- IC50 [3, 6]: 0.24 µM

SMILES: CC[C@H](C)[C@@H]1NC(=O)[C@@H]2CSSC[C@@H]3NC(=O)[C@H](C(C)C)NC(=O)[C@H](CC(C)C)NC(=O)[C@H](CC(N)=O)NC(=O)[C@@H]4CCCN4C(=O)[C@H](CCCNC(=N)N)NC(=O)[C@H](CSSC[C@H](NC(=O)[C@@H](N)CC(=O)O)C(=O)N[C@@H](CC(C)C)C(=O)NCC(=O)N[C@@H](Cc4ccccc4)C(=O)N[C@@H](CCSC)C(=O)N[C@@H](CCCNC(=N)N)C(=O)N[C@@H](CCCCN)C(=O)N2)NC(=O)[C@H](CSSC[C@@H](C(=O)N[C@@H](CCCCN)C(=O)N[C@@H](Cc2ccc(O)cc2)C(=O)N[C@@H](Cc2ccc(O)cc2)C(=O)N[C@@H](Cc2ccccc2)C(N)=O)NC(=O)[C@H](Cc2c[nH]c4ccccc24)NC(=O)[C@H](CCCCN)NC(=O)[C@H](Cc2c[nH]cn2)NC(=O)[C@H]([C@@H](C)O)NC(=O)[C@H](CCCNC(=N)N)NC(=O)[C@H](CO)NC3=O)NC(=O)[C@H](CCCCN)NC(=O)[C@H](CC(=O)O)NC(=O)[C@H](CC(N)=O)NC(=O)[C@H](CC(=O)O)NC(=O)[C@@H]2CCCN2C1=O [compound 399] (H-DCLGFMRKCIPDNDKCCRPNLVCSRTHKWCKYYF-NH2; disulfide 2-17, 9-23, 16-30)
- IC50 ([1]; Table 26, use, […]): 0.07 µM
- IC50 ([2]; Table 26, use, […]): > 5 µM
- IC50 ([3]; Table 26, use, […]): 0.03 µM
